Publication PMC7351026, “Serum Half-Lives for Short- and Long-Chain Perfluoroalkyl Acids after Ceasing Exposure from Drinking Water Contaminated by Firefighting Foam” (Environmental Health Perspectives, 2020)
Where “and” joins values, the source holds several entries; their conditions need not be identical. Equal entries are not always repeated.

Tests used:
[1] = PFAS levels in urine samples of airport employees, specific-gravity adjusted (LC/MS/MS); format: in vivo, human
Procedure: Only one employee provided a single urine sample. […] All employees provided written informed consent.
The samples were thawed 1–2 h, then mixed by vortex shaker and manual turning. […] For the urine samples, 50μL urine was mixed with 25μL of methanol and 25μL of a 50% acetonitrile solution containing isotopically labeled internal standards (see Table S1). Then samples were shaken vigorously for 30 min and centrifuged at 3,000×g for 10 min at room temperature.
Aliquots of 20μL of the sample were analyzed using LC/MS/MS. […] The analysis was performed in negative ion mode. The ion source temperature was at 350°C.
Urinary PFAS concentrations were specific-gravity adjusted. The ratio of urine and serum concentration for each PFAS (urine/serum ratio) at each sampling was calculated based on PFAS concentrations in paired serum and urine samples from 17 employees. Then the personal average urine/serum ratio was calculated using the mean value of repeated samplings for each employee.

[2] = Serum/water ratio; format: in vivo, human; settings: median serum level of first samples (26 employees) divided by airport drinking-water level
Procedure: The ratio of serum and water concentration for each PFAS (serum/water ratio) was calculated based on median serum level in the first serum sample obtained from all 26 airport employees divided by the drinking-water concentration. This ratio is an indicator of PFAS accumulation in body.

[3] = PFAS levels in serum samples of airport employees (LC/MS/MS)
Procedure, shortened: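 LC/MS/MS quantification (BEH C18, 5 mM ammonium acetate water:methanol to methanol gradient) after protein precipitation of 25 μL serum with isotopically labeled internal standards, FBS-matrix calibration. Samples stored at −80°C, collected at monthly intervals from September 2018 and run together in a single batch.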

[4] = 2nd sampling (October 2018), count 17
[5] = 3rd sampling (November, 2018), count 16
[6] = 4th sampling (December 2018), count 14
[7] = 5th sampling (January 2019), count 12
[8] = second to fifth samplings, 17 airport employees
[9] = 1st sampling (September 2018), count 17
[10] = 3rd sampling (November, 2018), count 17
[11] = 4th sampling (December 2018), count 16
[12] = 5th sampling (January 2019), count 16
[13] = first serum samples, all 26 airport employees
[14] = median of first serum samples, all 26 airport employees

In the case of `O=S(=O)(O)C(F)(F)C(F)(F)C(F)(F)C(F)(F)C(F)(F)C(F)(F)F` [PFHxS, perfluorohexane sulfonic acid], the “Specific gravity adjusted urinary level, 25 percentile” value [1, 4] was 0.06 ng/mL, the “Specific gravity adjusted urinary level, 75 percentile” value [1, 4] was 0.13 ng/mL and the “Specific gravity adjusted urinary level, Max” value [1, 4] was 0.28 ng/mL. For the same compound, the “Specific gravity adjusted urinary level, Median” value [1, 4] was 0.09 ng/mL, the “Specific gravity adjusted urinary level, Min” value [1, 4] was 0.03 ng/mL and the “Specific gravity adjusted urinary level, 25 percentile” value [1, 5] was 0.05 ng/mL. The “Specific gravity adjusted urinary level, 75 percentile” value [1, 5] was 0.13 ng/mL, the “Specific gravity adjusted urinary level, Max” value [1, 5] was 0.26 ng/mL and the “Specific gravity adjusted urinary level, Median” value [1, 5] was 0.07 ng/mL. For the same compound, the “Specific gravity adjusted urinary level, Min” value [1, 5] was 0.03 ng/mL, the “Specific gravity adjusted urinary level, 25 percentile” value [1, 6] was 0.05 ng/mL and the “Specific gravity adjusted urinary level, 75 percentile” value [1, 6] was 0.17 ng/mL. The “Specific gravity adjusted urinary level, Max” value [1, 6] was 0.73 ng/mL, the “Specific gravity adjusted urinary level, Median” value [1, 6] was 0.12 ng/mL and the “Specific gravity adjusted urinary level, Min” value [1, 6] was 0.04 ng/mL. For the same compound, the “Specific gravity adjusted urinary level, 25 percentile” value [1, 7] was 0.07 ng/mL, the “Specific gravity adjusted urinary level, 75 percentile” value [1, 7] was 0.11 ng/mL and the “Specific gravity adjusted urinary level, Max” value [1, 7] was 0.31 ng/mL. The “Specific gravity adjusted urinary level, Median” value [1, 7] was 0.08 ng/mL, the “Specific gravity adjusted urinary level, Min” value [1, 7] was 0.06 ng/mL and the “Specific gravity adjusted urine level, median (range)” value [1, 8] was 0.092 (0.025–0.73) ng/mL. For the same compound, the Serum/water ratio [2] was 107, the “Serum PFAS level, 25 percentile” value [3, 9] was 63 and the “Serum PFAS level, 75 percentile” value [3, 9] was 155. For the same compound, the “Serum PFAS level, Max” value [3, 9] was 402, the “Serum PFAS level, Median” value [3, 9] was 133 and the “Serum PFAS level, Min” value [3, 9] was 21. The “Serum PFAS level, 25 percentile” value [3, 4] was 57, the “Serum PFAS level, 75 percentile” value [3, 4] was 144 and the “Serum PFAS level, Max” value [3, 4] was 363. The “Serum PFAS level, Median” value [3, 4] was 122, the “Serum PFAS level, Min” value [3, 4] was 18 and the “Serum PFAS level, 25 percentile” value [3, 10] was 57. For the same compound, the “Serum PFAS level, 75 percentile” value [3, 10] was 150, the “Serum PFAS level, Max” value [3, 10] was 392 and the “Serum PFAS level, Median” value [3, 10] was 119. For the same compound, the “Serum PFAS level, Min” value [3, 10] was 20, the “Serum PFAS level, 25 percentile” value [3, 11] was 50 and the “Serum PFAS level, 75 percentile” value [3, 11] was 146. For the same compound, the “Serum PFAS level, Max” value [3, 11] was 381, the “Serum PFAS level, Median” value [3, 11] was 109 and the “Serum PFAS level, Min” value [3, 11] was 17. For the same compound, the “Serum PFAS level, 25 percentile” value [3, 12] was 64, the “Serum PFAS level, 75 percentile” value [3, 12] was 153 and the “Serum PFAS level, Max” value [3, 12] was 399. For the same compound, the “Serum PFAS level, Median” value [3, 12] was 117, the “Serum PFAS level, Min” value [3, 12] was 42 and the “Serum level in the first samples, median (range)” value ([3]; all 26 airport employees) was 76 (17–402) ng/mL. The “PFAS in first serum sample, median (range)” value ([3]; employees participated in first blood sampling and repeated blood and urine sampling, N=17) was 133 (21–402) ng/mL, the “PFAS in first serum sample, median (range)” value ([3]; employees participated in first blood sampling only, N=9, 11-14 d after end of exposure) was 60 (17–85) ng/mL and the “Initial serum PFAS level, max” value ([3]; females (N=7)) was 183 ng/mL. The “Initial serum PFAS level, median” value ([3]; females (N=7)) was 74 ng/mL, the “Initial serum PFAS level, min” value ([3]; females (N=7)) was 21 ng/mL and the “Relative composition of PFAS in serum, molar concentration basis” value [3, 13] was 70.4% and 70%. The “Relative composition of PFAS in serum, weight basis” value [3, 13] was 68.9%, the “Initial serum PFAS level, Max” value ([3]; males (N=19)) was 402 ng/mL and the “Initial serum PFAS level, Min” value ([3]; males (N=19)) was 17 ng/mL. The “Initial serum PFAS level, median” value ([3]; males (N=19)) was 78 ng/mL, the “Serum concentration, molar basis” value [3, 14] was 0.19 and the “Serum concentration, weight basis” value [3, 14] was 76. The “Serum level, median (range)” value [3, 8] was 118 (17–399) ng/mL.
